Experimental data published in ChEMBL document CHEMBL1158498, “Synthesis of 4'-ester analogs of resveratrol and their evaluation in malignant melanoma and pancreatic cell lines” (Bioorg Med Chem Lett, 2010).
The source made the active and inactive calls. No cut-off for these calls is given here.

What was measured:
PANC-1 [1] = assay: Cytotoxicity against human PANC1 cells at 50 uM after 72 hrs by WST-1 assay in presence of gemcitabine; format: functional, cell-based
PANC-1 [2] = assay: Cytotoxicity against human PANC1 cells at 50 uM after 72 hrs by WST-1 assay; format: functional, cell-based
NHDF = assay: Cytotoxicity against human NHDF cells at 50 uM after 72 hrs by WST-1 assay; format: cell-based
DM443 = assay: Cytotoxicity against human DM443 cells at 50 uM after 72 hrs by WST-1 assay; format: functional, cell-based
DM738 = assay: Cytotoxicity against human DM738 cells at 50 uM after 72 hrs by WST-1 assay; format: functional, cell-based

SMILES | Activity (PANC-1 [1]) | Activity (PANC-1 [2]) | Activity (NHDF) | Activity (DM443) | Activity (DM738)
CC(=O)Oc1cc(/C=C/c2ccc(O)cc2)cc(OC(C)=O)c1 | Not toxic | – | – | – | –
CC(=O)Oc1ccc(/C=C/c2cc(O)cc(O)c2)cc1 | – | Active | Non-toxic | – | –
CC(=O)Oc1cc(O)cc(/C=C/c2ccc(O)cc2)c1 | Not toxic | – | – | – | –
Oc1ccc(/C=C/c2cc(O)cc(O)c2)cc1 | Not toxic | – | – | – | –
Oc1cc(F)cc(/C=C/c2ccc(F)cc2)c1 | Not toxic | – | – | Active | Active
CCCCCC(=O)Oc1ccc(/C=C/c2cc(O)cc(O)c2)cc1 | Not toxic | – | – | Active | Active
CCCC(=O)Oc1ccc(/C=C/c2cc(O)cc(O)c2)cc1 | Not toxic | – | – | Active | Active
CC(C)C(=O)Oc1ccc(/C=C/c2cc(O)cc(O)c2)cc1 | Not toxic | – | – | Active | Active
O=C(CCCCC(=O)Oc1ccc(/C=C/c2cc(O)cc(O)c2)cc1)Oc1ccc(/C=C/c2cc(O)cc(O)c2)cc1 | Not toxic | – | Non-toxic | – | –
CC(=O)Oc1ccc(/C=C/c2cc(OC(C)=O)cc(OC(C)=O)c2)cc1 | Not toxic | Active | – | – | –
CCCCCCCCCCCCCCCC(=O)Oc1ccc(/C=C/c2cc(O)cc(O)c2)cc1 | Not toxic | – | – | – | –
